Converted amounts (≈) assume the structure as drawn. Where two headings read alike, the source gives them in different places.
Key:
[1] = tested on: Jurkat cells; experiment: Inhibitory action for G2 checkpoint using Jurkat cells (cell cycle by FACS); assay type: cell-based, human; conditions: for IC50: Homo sapiens; for selectivity: specificity to the G2 phase cells, Table 1; for differences between both concentrations: IC50 (col) versus IC50 (bleo)
Method: (§1) An assay method of G2 arrest activity with treatment of anticancer agent using cancer cells is performed according to the method of Suganuma et al. (Cancer Research, […]: 5887-5891, 1999).
Jurkat cells derived from human lymphoma were cultured in RPMI 1640 medium (a medium adding an inactivated fetal bovine serum (JRH Bioscience Inc.) 50 ml and a mixture 50 ml of penicillin (10,000 units/ml) and streptomycin (10 mg/ml) (Invitrogen Inc.) in RPMI 1640 (IWAKI Co., Ltd.) 500 ml) by using a 75 cm^3 culture flask. After centrifugation of the Jurkat cells at 1, 000 rpm for 10 minutes, the supernatant was removed by using aspirator to adjust the number of cells to be 5 × 10^5 cells/ml with addition of RPMI 1640 medium. Bleomycin (Nippon Kayaku Co., Ltd.) or colchicines (Sigma Inc.) was added to be the final concentration of 40 µM or 0.5 µM, respectively, into the cell suspension. The suspension was added into each well of 96 well multiplate (Corning Corp., the U.S.), which was previously air dried after adding FKI-2342A - F substances 200 µl (1 × 10^5 cells/well) in each well, and incubated at 37°C for 20 hours.
Cells after culturing for 20 hours were centrifuged at 1,000 rpm for 10 minutes, and the supernatant was removed by using aspirator. Krishan's reagent (trisodium citrate (Wako Pure Chemical Industries, Ltd.) […], IGEPALCA-630 (Sigma Inc.) 1.5 ml, ribonuclease A (Sigma Inc.) 10 mg and propydium iodide (Sigma Inc.) 25 mg dissolved in sterilized water 50.0 ml) […] was added to each well. The well was covered with aluminum foil for light shielding and allowed to stand at room temperature for 1 hour with gently shaking by the shaker to perform DNA staining. Measurement of cell cycle was performed by measuring 10,000 cells using FACS Caliber (Becton Dickinson Inc.) to calculate ratio of cells in sub G1, G1, S, and G2/M phase by using analytical software Ce 11 Quest.
(§2) Experimental results in relation to FKI-2342A substance - F substance were obtained by using the index of the G2/M phase cell. A concentration of substance wherein the number of cells at G2 phase is reduced to 50% when the number of cells arrested at G2 phase by treatment with bleomycin is set as 100%, is calculated as IC50 (bleo), and similarly a concentration of substance wherein the number of cells at M phase is reduced to 50% is calculated as IC50 (col), and the specificity to the G2 phase cells as the selectivity is shown in Table 1.

[2] = tested on: HCT-116 cells; experiment: Inhibitory action for G2 checkpoint using HCT-116 cells (cell cycle by FACS); assay type: cell-based, human; conditions: for IC50: Homo sapiens, 24 hours; for Selectivity IC50(col) /IC50(bleo): Table 2
Method: as §1
A cell suspension (15 ml) of HCT-116 cells derived from human colon cancer, adjusted to 1.5 × 10^5 cells/ml with McCoy's medium, was cultured in McCoy's 5A medium (a medium adding an inactivated fetal bovine serum (FBS) […] and a mixture 5 ml of penicillin (10,000 units/ml) and streptomycin (10 mg/ml) in McCoy's 5A (Invitrogen Inc.) 500 ml) in a 75-cm^3 culture flask (Corning Corp., the U.S.) under the atmosphere of […] at 37°C, and a subinoculation was performed after 3 days.
HCT-116 cells (500 µl) adjusted to give 1.5×10^5 cells/ml. were added into each well of a 24-well microplate (IWAKI Co., Japan) and incubated at 37°C for 24 hours. Thereafter, the medium was removed and 250 µl of 27 µM bleomycin or that of 0.5 µM colcicine prepared with McCoy's 5A medium were added in each well, and FKI-2342A substance - FKI-2342F substance dissolved in 0.5% DMSO, each 250 µl, were added (final concentration: bleomycin 13 µM, colchicine 0.25 µM, and 0.25% DMSO). The plate was incubated under […] at 37°C for 24 hours. After the incubation, the supernatant was recovered in 1.5 ml Eppendorf tube and stored on ice. Cells on the plate were detached by adding trypsin-EDTA solution (150 µl) and culturing at 37°C for 10 minutes. Immediately after the cells were detached, 300 µl of the medium were added to denature the trypsin, and were mixed with the supernatant which was stored on the ice. The mixture was centrifuged at 1,000 rpm for 10 minutes, and the supernatant was removed by using the aspirator, then Krishan's reagent (200 µl) was added thereto, and after allowing to stand for 1 hour, measurement was performed by using FACS.
Measurement of cell cycle was performed by measuring 10,000 cells using FACS Caliber (Becton Dickinson Inc.) to calculate ratio of cells in sub G1, G1, S, and G2/M phase by using analytical software cell Quest.
as §2, with “concentration of substance, in which the number” for “concentration of substance wherein the number”, “with bleomycin is' set as” for “with bleomycin is set as”, “reduced to 50%, is calculated” for “reduced to 50% is calculated”, “shown in Table'2.” for “shown in Table 1.”

[3] = cells arrested at G2 phase by bleomycin 40 µM reduced to 50%, 20 hours, Table 1, read-out: IC50 bleomycin
[4] = cells at M phase (colchicine 0.5 µM) reduced to 50%, 20 hours, Table 1, read-out: IC50 colchicine
[5] = cells arrested at G2 phase by bleomycin 13 µM reduced to 50%, read-out: IC50 bleomycin
[6] = cells at M phase (colchicine 0.25 µM) reduced to 50%, read-out: IC50 colchicine
[7] = cells arrested at G2 phase by bleomycin reduced to 50%, read-out: IC50 (bleo)
[8] = cells at M phase (colchicine) reduced to 50%, read-out: IC50 (col)

IC50 [1, 3] [µg/mL] | IC50 [1, 4] [µg/mL] | IC50 [2, 5] [µg/mL] | IC50 [2, 6] [µg/mL] | Selectivity IC50(col) /IC50(bleo) [2] | IC50 [1, 7] [µg/mL] | IC50 [1, 8] [µg/mL] | differences in a concentration ratio (IC50 (col) / IC50 (bleo)) [2] [fold] | SMILES | selectivity [1] | differences between both concentrations [1] [fold]
100 (≈ 387 µM) | 200 (≈ 774 µM) | 120 (≈ 465 µM) | 180 (≈ 697 µM) | 2 |  |  |  | C=C(C(=O)O)C(CCCCCC(=O)OC)C(=O)O (centres unmarked) [B] | 2 | 
1.2 (≈ 4.19 µM) | 10 (≈ 34.9 µM) | 2 (≈ 6.99 µM) | 20 (≈ 69.9 µM) | 8 | 1.2 (≈ 4.19 µM) | 10 (≈ 34.9 µM) | 10 | C=C(C(=O)O)C(CCCCCCCC(=O)OC)C(=O)O (centres unmarked) [E] | 8 | 8
100 (≈ 409 µM) | 200 (≈ 819 µM) | 120 (≈ 491 µM) | 180 (≈ 737 µM) | 2 |  |  |  | C=C(C(=O)O)C(CCCC(=O)OC)C(=O)OC (centres unmarked) [A] | 2 | 
25 (≈ 91.8 µM) | 175 (≈ 643 µM) | 25 (≈ 91.8 µM) | 100 (≈ 367 µM) | 7 | 25 (≈ 91.8 µM) | 175 (≈ 643 µM) | 4 | C=C(C(=O)O)C(CCCCCC(=O)OC)C(=O)OC (centres unmarked) [D] | 7 | 7
100 (≈ 409 µM) | 200 (≈ 819 µM) | 100 (≈ 409 µM) | 180 (≈ 737 µM) | 2 |  |  |  | C=C(C(=O)O)C(CCCC(=O)OCC)C(=O)O (centres unmarked) [F] | 2 | 
100 (≈ 367 µM) | 200 (≈ 734 µM) | 120 (≈ 441 µM) | 180 (≈ 661 µM) | 2 |  |  |  | C=C(C(=O)O)C(CCCCCC(=O)OCC)C(=O)O (centres unmarked) [C] | 2 | 
